Experimental data published in patent US4963570A, “1-(acetylaminophenyl)-2-aminopropanone derivatives and pharmaceutical compositions thereof” (Laboratoire L. Lafon, priority 1983, dated 1990).
Where a name gives a salt, the structure may show the parent alone.

Legend:
mice [1] = test: motility reduced by habituation to the enclosure; format: in vivo, mouse; details: i.p., dose not stated
Method: After they have stayed in the actimeters for 18 hours, the mice (6 per dose, 12 control animals) receive CRL 41 224. They are immediately returned to their respective enclosures and, half an hour later, their motility is recorded for 30 minutes.

CNS = test: overall neuropsychopharmacological (CNS) profile; format: in vivo, mouse; rat; details: i.p., mice and rats; dose not stated
Method: The neuropsychopharmacological study of CRL 41 219 was carried out as indicated above for CRL 41 224.
The neuropsychopharmacological study of CRL 41 220 was carried out in accordance with the procedures given above for CRL 41 224.

mice [2] = test: interaction with oxotremorine; format: in vivo, mouse; details: i.p.; dose not stated
Method: CRL 41 224 is administered to groups of 6 mice 0.5 hour before the intraperitoneal injection of 0.5 mg/kg of oxotremorine.

mice [3] = test: overall behavior and reactivities in mice; format: in vivo, mouse; details: mice, i.p.; dose not stated
Method: (§1) Groups of three animals are observed before and then 0.25 hour, 0.50 hour, 1 hour, 2 hours, 3 hours and 24 hours after the administration of CRL 41 224.

mice [4] = test: asphyxiant anoxia (gallamine triiodoethylate); format: in vivo, mouse; details: i.p.; dose not stated
Method: Groups of 10 mice receive CRL 41 224 half an hour before the intraperitoneal administration of 32 mg/kg of gallamine triiodoethylate (reference curarizing agent).

rats [5] = test: interaction with amphetamine; format: in vivo, rat; details: rats, i.p.; dose not stated
Method: Amphetamine (2 mg/kg) is injected intraperitoneally into groups of 6 rats 30 minutes after the administration of CRL 41 224.

mice [6] = test: four plate test, traction and electric shock; format: in vivo, mouse; details: i.p., dose not stated
Method: The test is performed on groups of 10 mice 30 minutes after the administration of CRL 41 224.

[7] = tested on: peripheral α-adrenergic stimulation; test: signs of peripheral adrenergic stimulation; format: in vivo, mouse; rat; details: i.p.; dose not stated
Method: as §1

mice [8] = test: action on the spontaneous motility (actimeter); format: in vivo, mouse; details: mice, i.p.; dose not stated
Method: 0.5 hour after they have received CRL 41 224, the mice (6 per dose, 12 control animals) are placed in an actimeter, where their motility is recorded for 30 minutes.

mice [9] = test: motility reduced by hypoxic aggression; format: in vivo, mouse; details: i.p., dose not stated
Method: Half an hour after they have received CRL 41 224, the mice (10 per dose, 20 control animals) are subjected to acute hypobaric anoxia [pressure reduction of 600 mm Hg (i.e. about 8×10^4 Pa) in 90 seconds; release of vacuum in 45 seconds] and are then placed in an actimeter, where their motility is recorded for 10 minutes.

[10] = acute toxicity, intraperitoneal (lethal doses); format: in vivo, mouse; details: mouse, in vivo, ip; male mice
Method: (§2) By intraperitoneal administration to male mice, the LD-30 (lethal dose for 30% of the animals tested) is of the order of 128 mg/kg and the LD-50 is of the order of about 200 mg/kg.

male mice [11] = test: acute toxicity, intraperitoneal (lethal doses); format: in vivo, mouse; details: i.p.
Method: as §2

mice [12] = test: interaction with reserpine; format: in vivo, mouse; details: i.p.; dose not stated
Method: Four hours after the intraperitoneal injection of 2.5 mg/kg of reserpine, groups of 6 mice receive CRL 41 224.

rats [13] = test: overall behavior and reactivities in rats; format: in vivo, rat; details: i.p., dose not stated
Method: as §1

mice [14] = test: interaction with barbital; format: in vivo, mouse; details: i.p.; dose not stated
Method: Half an hour after the administration of CRL 41 224, groups of 10 mice receive an intraperitoneal injection of barbital (220 mg/kg).

mice [15] = test: action on the behavioral despair; format: in vivo, mouse; details: i.p., dose not stated
From the text: Half an hour after they have received CRL 41 224, groups of 6 mice are placed in a beaker filled with water to a height of 6 cm. The total period of immobility between the 2nd and 6th minutes following immersion is noted.

rats [16] = test: interaction with apomorphine in rats; format: in vivo, rat; details: i.p., dose not stated
Method: CRL 41 224 is administered to groups of 6 rats 0.5 hour before the subcutaneous injection of 0.5 mg/kg of apomorphine.

mice [17] = test: interaction with apomorphine in mice; format: in vivo, mouse; details: i.p.; dose not stated
Method: Groups of 6 mice receive CRL 41 224 0.5 hour before the subcutaneous injection of 1 or 16 mg/kg of apomorphine.

male mice [18] = test: interaction with proadifen: motility; format: in vivo, mouse; details: i.p., administered alone
Method: (§3) Two series of experiments were carried out. In the first one, male mice (12 per dose, 12 control animals) were administered per I.P. route (i) with proadifen (75 mg/kg) at T-3 h, then (ii) with CRL 41 152 at T-0.5 h. At T=0 the mice were placed in actimeters, where their motility was recoded for 0.5 h. In the second one male mice (12 per dose, 12 control animals) were administered with proadifen and CRL 41 152 as indicated hereinabove, then subcutaneously with apomorphine (16 mg/kg) at T=0 in order to appreciate the potential variation of the hypothermia induced by apomorphine.
(§4) In these two series CRL 41 152, in solution in distilled water, was administered per I.P. route to male mice in a volume of 20 ml/kg.

male mice [19] = test: interaction with proadifen: hypothermia induced by apomorphine; format: in vivo, mouse
Method: as §3, §4

## CC(=O)Nc1ccc(C(=O)C(C)N2CCCC2)cc1Cl (stereo not shown) [CRL 41 219, 1-(4-acetylamino-3-chlorophenyl)-2-pyrrolidinopropanone hydrochloride]
Mice [1]
  motor activity after habituation to the enclosure: resumption in the motor activity after habituation to the enclosure
CNS
  overall action on the CNS: antidepressant, stimulant and arousing properties
Mice [2]
  hypothermia induced by oxotremorine: antagonism of the hypothermia induced by apomorphine, reserpine and oxotremorine
  trembling caused by oxotremorine: antagonism of the trembling caused by oxotremorine
Mice [3]
  excitation in mice: excitation with hyperreactivity
  stereotype movements in mice: late appearance of stereotypies
Mice [4]
  time taken for convulsions and death to occur following asphyxiant anoxia: reduction in the time taken for convulsions and death to occur following asphyxiant anoxia
Rats [5]
  stereotypies induced by amphetamine: potentiation of the stereotypies induced by apomorphine and amphetamine
Mice [6]
  lethal effects of electric shock: aggravation of the lethal effects of electric shock
Mice [6]; mice
  number of punished passes in the 4 plate test: increase in the number of punished passes
[7]
  mydriasis: mydriasis
  peripheral adrenergic stimulation, overall: effects reflecting peripheral α-adrenergic stimulation
Mice [8]
  spontaneous motility / motor activity: hyperactivity, increase in the spontaneous motor activity
Mice [9]
  motor recovery after hypoxic aggression: improvement in the motor recovery after hypoxic aggression
[10]
  LD50: ~200 mg/kg
Male mice [11]
  LD-30: ~128 mg/kg
Mice [12]
  hypothermia induced by reserpine: antagonism of the hypothermia induced by apomorphine, reserpine
  ptosis induced by reserpine: antagonism of the ptosis induced by reserpine
Rats [13]
  excitation in rats: excitation (with hyperractivity)
  stereotype movements in rats: presence of stereotype movements
Mice [14]
  sleep induced by barbital: antagonism of the sleep induced by barbital
Mice [15]
  period of immobility or "despair": reduction in the immobility
Rats [16]
  stereotypies induced by apomorphine: potentiation of the stereotypies induced by apomorphine
Mice [17]
  hypothermia induced by apomorphine: antagonism of the hypothermia induced by apomorphine

## CCCC(C(=O)OCCN(CC)CC)(c1ccccc1)c1ccccc1 [Proadifen, reference compound]
Male mice [18]
  spontaneous motility: induces hypomotility
Male mice [19]; i.p., apomorphine 16 mg/kg s.c.
  righting behaviour and stereotypies induced by apomorphine: Neither proadifen, nor CRL 41 152, nor their combination modify the righting behaviour
Male mice [19]; proadifen 75 mg/kg i.p.
  body temperature, used alone: important hypothermic effect
Male mice [19]; proadifen 75 mg/kg i.p., apomorphine 16 mg/kg s.c.
  hypothermia induced by apomorphine: does not modify the hypothermia induced by apomorphine
